The source of these data is publication PMC12140364, “Meisoindigo Acts as a Molecular Glue to Target PKMYT1 for Degradation in Chronic Myeloid Leukemia Therapy” (Advanced Science, 2025).

For assay [1], the target named is T1, PKMYT1 (Homo sapiens, UniProt Q99640).
T1 sequence (Q99640 1-499): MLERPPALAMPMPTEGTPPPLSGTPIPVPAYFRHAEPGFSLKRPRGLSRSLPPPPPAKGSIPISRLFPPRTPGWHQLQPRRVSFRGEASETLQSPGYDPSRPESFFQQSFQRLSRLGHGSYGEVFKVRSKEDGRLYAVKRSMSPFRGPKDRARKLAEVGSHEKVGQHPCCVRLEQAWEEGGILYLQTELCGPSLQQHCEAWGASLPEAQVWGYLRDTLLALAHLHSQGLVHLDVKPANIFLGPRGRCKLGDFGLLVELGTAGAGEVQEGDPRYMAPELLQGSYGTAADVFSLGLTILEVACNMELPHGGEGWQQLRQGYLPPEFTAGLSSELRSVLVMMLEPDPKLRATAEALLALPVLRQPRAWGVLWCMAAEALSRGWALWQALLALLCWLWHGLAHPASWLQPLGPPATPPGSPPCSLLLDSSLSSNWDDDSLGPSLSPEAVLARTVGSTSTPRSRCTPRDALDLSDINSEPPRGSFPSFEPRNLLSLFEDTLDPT
The assay is described as follows: enzyme activity assay. The class given is biochemical.

The target in assay [2] is T2, TRIM25 (Homo sapiens, UniProt Q14258).
T2 construct: recombinant TRIM25 (Origene, TP303757)
The assay is described as follows: MST. The class given is binding.

The target of assay [3] is T3, PKMYT1 (protein kinase, membrane-associated tyrosine/threonine 1) (Homo sapiens, UniProt Q99640).
T3 construct: residues 75-362, N-terminal 6xHis, E. coli
T3 sequence (Q99640 75-362): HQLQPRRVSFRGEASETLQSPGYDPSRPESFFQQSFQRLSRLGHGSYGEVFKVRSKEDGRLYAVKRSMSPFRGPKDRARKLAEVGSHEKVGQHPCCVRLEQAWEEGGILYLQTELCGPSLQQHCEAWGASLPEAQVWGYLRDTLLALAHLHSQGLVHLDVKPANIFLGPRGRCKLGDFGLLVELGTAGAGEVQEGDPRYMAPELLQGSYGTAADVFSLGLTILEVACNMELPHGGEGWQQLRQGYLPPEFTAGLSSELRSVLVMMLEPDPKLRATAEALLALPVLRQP
Nature of the assay: MST; LC-MS/MS adduct mapping; CETSA; C301A mutant abolishes binding.

In assay [4] the target is T4, TRIM25 protein (Origene, TP303757) (UniProt Q14258 1-630).
T4 construct: TRIM25, E3 ubiquitin ligase; also called recombinant TRIM25; E3 ligase TRIM25; source: bought: Origene (TP303757)
Nature of the assay: MST; PKMYT1 (75-362) protein labelled with RED-NHS 2nd Generation, 40 nM, assay buffer with 0.05% Tween-20; TRIM25 in 2-fold dilution series; Monolith NT.115; without Mei; n = 3. Particulars: both partners purified.

T4 sequence (Q14258 whole entry): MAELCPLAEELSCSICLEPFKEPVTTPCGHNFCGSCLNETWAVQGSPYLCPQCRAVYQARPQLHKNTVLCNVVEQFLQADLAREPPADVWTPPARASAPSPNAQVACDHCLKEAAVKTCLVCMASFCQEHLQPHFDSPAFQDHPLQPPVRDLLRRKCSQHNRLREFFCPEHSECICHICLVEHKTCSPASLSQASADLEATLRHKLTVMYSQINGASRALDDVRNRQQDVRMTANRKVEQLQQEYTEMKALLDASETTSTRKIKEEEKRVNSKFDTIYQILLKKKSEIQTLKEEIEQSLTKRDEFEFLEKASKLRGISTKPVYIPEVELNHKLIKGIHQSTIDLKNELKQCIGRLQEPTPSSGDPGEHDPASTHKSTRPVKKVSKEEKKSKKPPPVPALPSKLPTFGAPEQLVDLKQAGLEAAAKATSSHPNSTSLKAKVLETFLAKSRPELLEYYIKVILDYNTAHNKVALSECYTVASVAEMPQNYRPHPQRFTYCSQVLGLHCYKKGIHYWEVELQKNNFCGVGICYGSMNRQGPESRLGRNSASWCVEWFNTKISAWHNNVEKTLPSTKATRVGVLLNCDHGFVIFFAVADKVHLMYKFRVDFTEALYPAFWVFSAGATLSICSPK
T2 sequence (Q14258 whole entry): as above

In turn, `CCN(CC)CCOc1ccc(Nc2ncc3cc(-c4c(Cl)cccc4Cl)c(=O)n(C)c3n2)cc1` [PD0166285] showed a half-maximal inhibitory concentration (IC50) in assay [1] of 16.4 nM. As to `CN1C(=O)/C(=C2/C(=O)Nc3ccccc32)c2ccccc21` [Mei, Meisoindigo], the Kd in assay [2] is 220 ± 100 nM; in assay [3], 2180 ± 960 nM.

B1: recombinant PKMYT1 (75-362) (domain or fragment, human, UniProt Q99640 75-362, looked up)
chain: T3 sequence (Q99640 75-362)
modifications: labelled with RED-NHS 2nd Generation dye for MST
notes: No cleavage of the His tag is described; also called protein kinase, membrane-associated tyrosine/threonine 1; source: E. coli BL21(DE3), purified (Ni-resin)
B1: binding in assay [4] was put at a Kd of 2940 nM.

A word on the IC50: it is the midpoint of a concentration-inhibition curve. A higher IC50 goes with weaker potency. The term Kd denotes the concentration at which binding is half-saturated. A low value points to a tighter complex.
